{
  "source": "paper PMC3742649",
  "about": "(Endocrine, 2013)",
  "key": {"[1]": {"biological_target": "T1, novel non-AT1, non-AT2 angiotensin binding site (neurolysin) (Rattus norvegicus, UniProt P42676)", "T1 sequence (P42676 38-704)": "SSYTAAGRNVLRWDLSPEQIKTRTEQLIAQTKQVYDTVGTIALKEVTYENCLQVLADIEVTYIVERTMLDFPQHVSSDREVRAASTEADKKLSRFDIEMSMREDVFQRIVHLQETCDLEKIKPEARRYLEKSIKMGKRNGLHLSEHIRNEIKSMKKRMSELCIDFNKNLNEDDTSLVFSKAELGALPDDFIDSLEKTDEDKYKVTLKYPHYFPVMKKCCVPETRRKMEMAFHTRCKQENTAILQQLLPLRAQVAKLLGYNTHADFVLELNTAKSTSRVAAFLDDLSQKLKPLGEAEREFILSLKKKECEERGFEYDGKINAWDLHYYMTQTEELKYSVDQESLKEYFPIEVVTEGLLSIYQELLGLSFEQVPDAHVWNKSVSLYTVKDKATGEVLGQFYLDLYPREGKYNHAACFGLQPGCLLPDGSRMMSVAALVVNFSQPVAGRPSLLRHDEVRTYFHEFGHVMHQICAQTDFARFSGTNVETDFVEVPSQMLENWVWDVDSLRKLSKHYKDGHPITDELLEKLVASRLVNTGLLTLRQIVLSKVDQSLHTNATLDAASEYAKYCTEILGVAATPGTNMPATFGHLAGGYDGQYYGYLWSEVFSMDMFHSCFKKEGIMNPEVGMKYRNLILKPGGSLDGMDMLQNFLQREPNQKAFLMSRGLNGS", "assay": "Competition binding of 125I-Sar1,Ile8 Ang II in rat testis membranes", "conditions": "for inhibition of 125I-SI Ang II binding in testis at concentrations up to 1 mM: rat testis"}, "[2]": {"biological_target": "T1, novel non-AT1, non-AT2 angiotensin binding site (neurolysin)", "assay": "Competition binding of 125I-Sar1,Ile8 Ang II in rat brain membranes", "conditions": "for inhibition of 125I-SI Ang II binding in brain at concentrations up to 1 mM: rat brain"}, "neurolysin": {"biological_target": "neurolysin", "conditions": "read-out: KI for neurolysin; reported value; cited from earlier work"}, "[3]": {"conditions": "listed as Proline-Isoleucine dipeptide"}},
  "note": "Entries after “also recorded” stand apart in the source; their conditions may differ. Where a SMILES comes first, the peptide text is derived from it.",
  "data": [
    {"smiles": "CC[C@H](C)[C@H](NC(=O)[C@H](CCCN=C(N)N)NC(=O)[C@H](CCCN=C(N)N)NC(=O)[C@H](CC(C)C)NC(=O)[C@H](Cc1ccccc1)NC(=O)CNC(=O)CNC(=O)[C@@H](N)Cc1ccc(O)cc1)C(=O)O", "note": "[Dynorphin A (1–8)]", "values": [
      {"measurement": "IC50", "setting": "[1]", "value": 2200, "unit": "nM"}
    ]},
    {"smiles": "CC[C@H](C)[C@H](NC(=O)[C@@H]1CCCN1)C(=O)O", "note": "[Pro-Ile, proline-isoleucine dipeptide] (H-Pro-Ile-OH)", "values": [
      {"measurement": "inhibition of 125I-SI Ang II binding in brain at concentrations up to 1 mM", "setting": "[2]", "value": "no inhibition; also recorded: failed to inhibit; also recorded: did not inhibit"},
      {"measurement": "inhibition of 125I-SI Ang II binding in brain at concentrations up to 1 mM", "setting": "[2]; [3]", "value": "inactive"},
      {"measurement": "inhibition of 125I-SI Ang II binding in testis at concentrations up to 1 mM", "setting": "[1]", "value": "no inhibition; also recorded: failed to inhibit; also recorded: did not inhibit"},
      {"measurement": "inhibition of 125I-SI Ang II binding in testis at concentrations up to 1 mM", "setting": "[1]; [3]", "value": "inactive"},
      {"measurement": "Ki", "setting": "neurolysin", "value": 90000, "unit": "nM"}
    ]},
    {"smiles": "CC[C@H](C)[C@H](NC(=O)[C@@H]1CCCN1C(=O)[C@H](Cc1c[nH]cn1)NC(=O)[C@@H](NC(=O)[C@H](Cc1ccc(O)cc1)NC(=O)[C@@H](NC(=O)[C@H](CCCN=C(N)N)NC(=O)CNC)C(C)C)[C@@H](C)CC)C(=O)O", "note": "[SI Ang II, Sar^1, Ile^8 angiotensin II]", "values": [
      {"measurement": "IC50", "setting": "[2]; IC50 in brain, rat brain membranes, Figure 1 Panel A", "value": 82.2, "unit": "nM"},
      {"measurement": "IC50", "setting": "[1]; IC50 in testis, rat testis membranes, Figure 1 Panel A", "value": 126, "unit": "nM"}
    ]}
  ]
}
